Laboratory results as given in article PMC4414309, “Target Modulation by a Kinase Inhibitor Engineered to Induce a Tandem Blockade of the Epidermal Growth Factor Receptor (EGFR) and c-Src: The Concept of Type III Combi-Targeting” (PLoS ONE, 2015).
Where two headings read alike, the source gives them in different places.

Experiments:
[1] = tested on: NIH3T3 wild type cells; experiment: Growth inhibition, sulforhodamine B (SRB) assay, NIH3T3 wild type; settings: Mus musculus, NIH3T3, 120 h, read-out: IC50 growth inhibition NIH3T3 – Wt
Method: (§3) Growth inhibition was measured in cells using the sulforhodamine B (SRB) assay [48]. […] The plates were subsequently rinsed with 1% acetic acid, and allowed to dry overnight. […] The results were analyzed using GraphPad Prism 6.0 (GraphPadSoftware, Inc., San Diego, CA) and the sigmoidal dose response curve was used to determine IC50 values. Each experiment was carried out at least four times, in triplicate.

[2] = tested on: 4T1 cells; experiment: Boyden chamber invasion assay, 4T1; format: cell-based, mouse; settings: for Effect on invasion: 4T1, concentration as low as 0.1 μM, 24h
Method: (§1) The invasive property of MDA-MB-231 and 4T1 cells was determined using the Boyden-chamber invasion assay. Cells suspended in serum-free media were plated (120–150,000 cells/well) onto polycarbonate transwell inserts (8 μm pore size, BD Biosciences) coated with matrigel (6%) (BD Biosciences), separating the top and bottom chambers (50 μl/filter). […] The invasive property of cells was observed 24h after treatment by fixing cells in formalin and staining with 0.1% crystal violet (Sigma-Aldrich Canada Ltd). Cells attached on the upper surface of the insert (top chamber) were removed by gently scraping away with a cotton swab, whereas those that invaded onto the lower side of the insert were observed using a microscope (Leica DM IL inverted microscope, 10X). Images of five non-overlapping fields of invading cells were captured using the Leica DFC300FX camera and quantification was done using the Scion Image Analysis (3.53.0.0) software and ImageJ 1.46r software. The results were expressed in terms of percentage of invading cells relative to control and the bar graphs represent the average of three independent experiments.

[3] = tested on: MDA-MB-231 cells; experiment: Boyden chamber invasion assay, MDA-MB-231; format: cell-based, human; settings: for Effect on invasion: MDA-MB-231, concentration as low as 0.1 μM, 24h
Method: as §1

[4] = tested on: 4T1 cells; experiment: Growth inhibition, SRB assay, 4T1; settings: Mus musculus, 4T1, 120 h, read-out: IC50 growth inhibition 4T1
Method: as §3

[5] = LC-MS analysis of AL776 hydrolysis in plasma in vivo; design: species or system CD-1 mice; settings: AL776 80 mg/kg i.v., after 30 min
Method: CD-1 mice were divided into groups of three and treated with 80 mg/kg of AL776, injected intraperitoneally (i.p) or intravenously (i.v). Mice were sacrificed and their plasma was collected for further analysis after 0, 5, 15 and 30 min after drug treatment. Plasma samples were extracted using twice the volume of methanol and lysed at 13,000 rpm for 30 min at 4°C. The resulting supernatant from each sample was collected, filtered and evaporated to dryness before reconstituting in 100 μL of methanol. LC-MS analyses were performed on a Synapt G2-S instrument coupled with an Acquity UPLC Class I system both from Waters. Elution rate was set at 500 μL/min using an Eclipse XDB C8, 3.5 um, 2.1 x 100 mm chromatographic column from Agilent Technologies. The experiments were performed with the following eluents: 0.1% aqueous formic acid (eluent A) and methanol (eluent B). The initial mobile phase was 30% B, which was maintained for 0.2 min at the beginning of the run. The following gradient elution was subsequently applied: 30 to 50% B from 0.2 to 4 min; 50 to 80% B from 4 to 10 min; held at 80% B from 10 to 11 min. Thereafter, eluent B was decreased to 30% in 0.2 min and held constant for up to 15 min to allow the column to equilibrate. Each sample was diluted with methanol in order to avoid detector saturation and […] aliquots of the resulting solutions were injected. Analyses were performed with the electrospray interface in positive ion mode and mass spectra acquired from m/z 100 to 1200. For accurate mass determination, Leucine Enkephalin was used as lock mass. The MassLynx software was used for instrument control, data acquisition and data processing.

[6] = tested on: MDA-MB-231 cells; experiment: Growth inhibition, SRB assay, MDA-MB-231; settings: Homo sapiens, MDA-MB-231, 120 h, read-out: IC50 growth inhibition MDA-MB-231
Method: as §3

[7] = target: T1, c-Src (Homo sapiens, UniProt P12931); experiment: In vitro kinase assay, c-Src; format: biochemical; settings: ATP 50 μM, read-out: IC50 c-Src kinase inhibition
T1 construct: purchased Enzo Life Sciences Inc, NY, USA; Signal Chem, Richmond, Canada
T1 sequence (P12931 whole entry): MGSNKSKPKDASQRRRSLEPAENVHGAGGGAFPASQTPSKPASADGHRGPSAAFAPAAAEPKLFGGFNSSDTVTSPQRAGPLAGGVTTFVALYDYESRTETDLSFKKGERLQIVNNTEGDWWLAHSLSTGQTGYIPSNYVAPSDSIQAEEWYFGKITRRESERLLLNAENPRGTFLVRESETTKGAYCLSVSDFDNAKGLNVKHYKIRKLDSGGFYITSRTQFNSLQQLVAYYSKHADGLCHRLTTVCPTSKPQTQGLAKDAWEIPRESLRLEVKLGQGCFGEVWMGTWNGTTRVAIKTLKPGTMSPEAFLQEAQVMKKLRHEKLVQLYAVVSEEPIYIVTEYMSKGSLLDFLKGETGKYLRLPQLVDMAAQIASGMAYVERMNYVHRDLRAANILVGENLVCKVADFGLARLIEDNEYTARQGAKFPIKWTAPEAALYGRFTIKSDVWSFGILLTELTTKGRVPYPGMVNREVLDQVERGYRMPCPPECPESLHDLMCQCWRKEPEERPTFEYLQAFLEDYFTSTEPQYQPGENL
Method: (§2) The EGFR and c-Src kinase assays were performed in 96-well plates (NuncMaxisorp) coated with PGT (poly L-glutamic acid L-tyrosine, 4:1, Sigma Aldrich, MO, USA) and incubated at 37°C for 48h prior to using. PGT served as the substrate to be phosphorylated by EGFR (Enzo Life Sciences Inc, NY, USA, Signal Chem, Richmond, Canada) and c-Src (Enzo Life Sciences Inc, NY, USA, Signal Chem, Richmond, Canada) in the presence of ATP (50 μM). […] To each well, 15 ng of EGFR (20 μg/ml) or 6 ng of c-Src (0.1 μg/μl) were added. The phosphorylated substrate was detected using an HRP-conjugated anti-phosphotyrosine antibody (Santa Cruz Biotechnology, CA). The signal was developed by the addition of 3, 3’, 5, 5’-tetramethylbenzidine peroxidase substrate (Kierkegaard and Perry Laboratories, Gaithersburg, MD) and the colorimetric reaction was monitored at 450 nm using a microplate reader ELx808 (BioTek Instruments). The IC50 values were calculated using GraphPad Prism 6.0 (GraphPadSoftware, Inc., San Diego, CA). Each experiment was carried out at least three times, in duplicate.

[8] = target: T2, EGFR (Homo sapiens, UniProt P00533); experiment: In vitro kinase assay, EGFR; format: biochemical; settings: ATP 50 μM, average of three independent experiments in duplicate, read-out: IC50 EGFR kinase inhibition
T2 construct: purchased Enzo Life Sciences Inc, NY, USA; Signal Chem, Richmond, Canada
T2 sequence (P00533 25-1210): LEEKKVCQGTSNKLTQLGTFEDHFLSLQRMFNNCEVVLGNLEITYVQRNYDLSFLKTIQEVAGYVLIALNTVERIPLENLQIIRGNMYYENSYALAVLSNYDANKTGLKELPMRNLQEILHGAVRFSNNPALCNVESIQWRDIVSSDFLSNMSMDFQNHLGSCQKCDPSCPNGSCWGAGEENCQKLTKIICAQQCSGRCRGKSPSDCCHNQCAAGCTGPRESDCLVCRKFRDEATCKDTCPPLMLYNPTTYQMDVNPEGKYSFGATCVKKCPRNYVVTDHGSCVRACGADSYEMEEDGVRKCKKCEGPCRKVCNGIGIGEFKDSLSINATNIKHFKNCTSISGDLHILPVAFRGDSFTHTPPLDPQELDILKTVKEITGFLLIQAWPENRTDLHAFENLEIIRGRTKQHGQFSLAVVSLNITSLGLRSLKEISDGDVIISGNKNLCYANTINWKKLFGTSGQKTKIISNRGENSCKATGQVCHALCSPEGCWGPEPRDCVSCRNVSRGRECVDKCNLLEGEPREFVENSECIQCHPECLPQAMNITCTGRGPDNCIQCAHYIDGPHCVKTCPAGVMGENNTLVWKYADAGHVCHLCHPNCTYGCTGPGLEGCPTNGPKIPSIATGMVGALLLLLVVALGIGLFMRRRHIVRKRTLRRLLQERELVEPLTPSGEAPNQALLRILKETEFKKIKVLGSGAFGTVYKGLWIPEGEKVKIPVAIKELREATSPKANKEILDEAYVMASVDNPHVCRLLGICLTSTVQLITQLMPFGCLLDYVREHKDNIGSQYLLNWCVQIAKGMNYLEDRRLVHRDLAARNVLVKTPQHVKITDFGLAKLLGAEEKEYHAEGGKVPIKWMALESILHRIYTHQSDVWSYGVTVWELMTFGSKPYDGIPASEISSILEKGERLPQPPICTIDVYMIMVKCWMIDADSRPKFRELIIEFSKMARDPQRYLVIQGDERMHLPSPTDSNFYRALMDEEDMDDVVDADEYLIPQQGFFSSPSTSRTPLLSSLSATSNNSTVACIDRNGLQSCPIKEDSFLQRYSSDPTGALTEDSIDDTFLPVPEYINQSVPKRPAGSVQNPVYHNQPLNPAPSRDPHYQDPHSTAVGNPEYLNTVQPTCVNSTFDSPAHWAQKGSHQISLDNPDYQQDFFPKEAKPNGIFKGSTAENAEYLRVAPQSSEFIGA
Method: as §2

[9] = target: T2, EGFR; experiment: Published EGFR kinase inhibition of AL621; format: biochemical; settings: published IC50 of AL621 compared with AL776
[10] = target: T2, EGFR; design: method as in PMID 22943437; settings: read-out: IC50 EGFR kinase inhibition (published); cited from earlier work
[11] = average of three independent experiments in duplicate

Plasma level as metabolite of AL776 [5]	IC50 [7, 11]	IC50 [8]	Structure (SMILES)	Effect on invasion [2]	Effect on invasion [3]	further results
abundant levels	–	–	Cc1nc(Nc2ncc(C(=O)Nc3c(C)cccc3Cl)s2)cc(N2CCN(CCO)CC2)n1 [Dasatinib, dasatinib, reference compound]	strongly inhibited invasion	strongly inhibited invasion	IC50 [1]: 16400 ± 5200 nM; IC50 [4]: 50 ± 20 nM; IC50 [6]: 20 ± 10 nM
–	–	–	COc1cc2ncnc(Nc3ccc(F)c(Cl)c3)c2cc1OCCCN1CCOCC1 [Gefitinib, gefitinib]	mostly unable to block invasion	mostly unable to block invasion	Anti-invasive effect weaker than dasatinib ([2]; 4T1): 2-3 fold; Anti-invasive effect weaker than dasatinib ([3]; MDA-MB-231): 2-3 fold
–	8 ± 3 nM	400 ± 100 nM	Cc1nc(Nc2ncc(C(=O)Nc3c(C)cccc3Cl)s2)cc(N2CCN(CCOC(=O)CCC(=O)Nc3ccc4ncnc(Nc5cccc(Cl)c5)c4c3)CC2)n1 [IV]	–	–	–
–	40 ± 10 nM	1100 ± 300 nM	Cc1nc(Nc2ncc(C(=O)Nc3c(C)cccc3Cl)s2)cc(N2CCN(CCOC(=O)OCCN3CCN(CCNc4ccc5ncnc(Nc6cccc(Br)c6)c5c4)CC3)CC2)n1 [VI]	–	–	–
abundant levels	–	–	CN(CCO)Cc1ccc(C(=O)Nc2ccc3ncnc(Nc4cccc(Cl)c4)c3c2)cc1 [AL621]	–	–	EGFR kinase potency relative to intact AL776 [9]: ca. 40 fold; IC50 [10]: 3 nM
–	–	600 ± 200 nM	Cc1nc(Nc2ncc(C(=O)Nc3c(C)cccc3Cl)s2)cc(N2CCN(CCOC(=O)c3cnc(C(=O)Nc4ccc5ncnc(Nc6cccc(Cl)c6)c5c4)cn3)CC2)n1 [III]	–	–	IC50 [7]: < 0.1 nM
